Tests used:
[1] = molecular target: Potassium voltage-gated channel subfamily H member 2 (Homo sapiens, UniProt Q12809); test: Inhibition of hERG expressed in CHO cells Qpatch-clamp electrophysiology assay
[2] = molecular target: Polyketide synthase Pks13 (Mycobacterium tuberculosis (strain ATCC 25618 / H37Rv), UniProt I6X8D2); test: Inhibition of Mycobacterium tuberculosis Pks13-TE expressed in Escherichia coli BL21(DE3) pLysS
Sequence of Polyketide synthase Pks13 (I6X8D2 whole entry): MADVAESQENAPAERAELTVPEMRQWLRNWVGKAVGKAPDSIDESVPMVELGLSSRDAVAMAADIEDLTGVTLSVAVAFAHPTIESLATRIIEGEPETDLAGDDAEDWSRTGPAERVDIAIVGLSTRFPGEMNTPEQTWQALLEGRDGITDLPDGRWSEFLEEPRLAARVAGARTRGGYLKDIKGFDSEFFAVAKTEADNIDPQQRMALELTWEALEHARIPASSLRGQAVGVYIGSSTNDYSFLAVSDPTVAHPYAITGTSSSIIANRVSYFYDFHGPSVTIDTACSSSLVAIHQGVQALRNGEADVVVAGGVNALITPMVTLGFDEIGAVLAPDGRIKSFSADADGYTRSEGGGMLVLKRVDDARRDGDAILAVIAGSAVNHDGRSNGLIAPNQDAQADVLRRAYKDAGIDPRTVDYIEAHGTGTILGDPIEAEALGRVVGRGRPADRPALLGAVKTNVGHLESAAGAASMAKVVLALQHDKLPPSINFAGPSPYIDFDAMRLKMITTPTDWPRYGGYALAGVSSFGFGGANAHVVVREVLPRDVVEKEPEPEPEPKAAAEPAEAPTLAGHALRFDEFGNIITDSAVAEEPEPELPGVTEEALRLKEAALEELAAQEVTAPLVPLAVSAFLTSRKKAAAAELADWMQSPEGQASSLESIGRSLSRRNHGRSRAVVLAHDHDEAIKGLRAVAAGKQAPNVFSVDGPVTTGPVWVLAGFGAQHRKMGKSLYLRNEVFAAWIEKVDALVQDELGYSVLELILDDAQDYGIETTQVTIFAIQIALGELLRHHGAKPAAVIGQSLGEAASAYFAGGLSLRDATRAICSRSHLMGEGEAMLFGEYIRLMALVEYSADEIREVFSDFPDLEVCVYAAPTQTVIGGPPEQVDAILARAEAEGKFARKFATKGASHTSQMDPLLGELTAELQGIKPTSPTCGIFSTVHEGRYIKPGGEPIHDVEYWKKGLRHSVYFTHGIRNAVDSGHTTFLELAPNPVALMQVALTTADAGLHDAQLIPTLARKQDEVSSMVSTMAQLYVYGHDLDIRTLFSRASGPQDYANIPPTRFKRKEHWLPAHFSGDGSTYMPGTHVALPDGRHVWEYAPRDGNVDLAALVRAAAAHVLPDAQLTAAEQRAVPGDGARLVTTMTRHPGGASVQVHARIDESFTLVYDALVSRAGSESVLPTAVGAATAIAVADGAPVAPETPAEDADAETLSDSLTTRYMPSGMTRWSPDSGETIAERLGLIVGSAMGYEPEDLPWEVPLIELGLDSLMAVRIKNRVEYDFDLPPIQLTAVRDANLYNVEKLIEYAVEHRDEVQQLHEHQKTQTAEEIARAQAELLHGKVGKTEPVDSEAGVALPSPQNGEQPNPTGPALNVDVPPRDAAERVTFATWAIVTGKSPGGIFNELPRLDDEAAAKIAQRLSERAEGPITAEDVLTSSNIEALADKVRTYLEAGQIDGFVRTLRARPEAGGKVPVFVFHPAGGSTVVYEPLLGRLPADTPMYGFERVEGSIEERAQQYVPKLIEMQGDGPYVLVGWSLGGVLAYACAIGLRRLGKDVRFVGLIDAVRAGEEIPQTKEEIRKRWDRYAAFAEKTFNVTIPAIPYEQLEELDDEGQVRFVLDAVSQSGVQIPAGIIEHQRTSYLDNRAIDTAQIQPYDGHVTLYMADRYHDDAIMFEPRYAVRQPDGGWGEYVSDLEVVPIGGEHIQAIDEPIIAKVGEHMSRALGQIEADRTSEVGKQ

Sequence of Potassium voltage-gated channel subfamily H member 2 (Q12809 whole entry): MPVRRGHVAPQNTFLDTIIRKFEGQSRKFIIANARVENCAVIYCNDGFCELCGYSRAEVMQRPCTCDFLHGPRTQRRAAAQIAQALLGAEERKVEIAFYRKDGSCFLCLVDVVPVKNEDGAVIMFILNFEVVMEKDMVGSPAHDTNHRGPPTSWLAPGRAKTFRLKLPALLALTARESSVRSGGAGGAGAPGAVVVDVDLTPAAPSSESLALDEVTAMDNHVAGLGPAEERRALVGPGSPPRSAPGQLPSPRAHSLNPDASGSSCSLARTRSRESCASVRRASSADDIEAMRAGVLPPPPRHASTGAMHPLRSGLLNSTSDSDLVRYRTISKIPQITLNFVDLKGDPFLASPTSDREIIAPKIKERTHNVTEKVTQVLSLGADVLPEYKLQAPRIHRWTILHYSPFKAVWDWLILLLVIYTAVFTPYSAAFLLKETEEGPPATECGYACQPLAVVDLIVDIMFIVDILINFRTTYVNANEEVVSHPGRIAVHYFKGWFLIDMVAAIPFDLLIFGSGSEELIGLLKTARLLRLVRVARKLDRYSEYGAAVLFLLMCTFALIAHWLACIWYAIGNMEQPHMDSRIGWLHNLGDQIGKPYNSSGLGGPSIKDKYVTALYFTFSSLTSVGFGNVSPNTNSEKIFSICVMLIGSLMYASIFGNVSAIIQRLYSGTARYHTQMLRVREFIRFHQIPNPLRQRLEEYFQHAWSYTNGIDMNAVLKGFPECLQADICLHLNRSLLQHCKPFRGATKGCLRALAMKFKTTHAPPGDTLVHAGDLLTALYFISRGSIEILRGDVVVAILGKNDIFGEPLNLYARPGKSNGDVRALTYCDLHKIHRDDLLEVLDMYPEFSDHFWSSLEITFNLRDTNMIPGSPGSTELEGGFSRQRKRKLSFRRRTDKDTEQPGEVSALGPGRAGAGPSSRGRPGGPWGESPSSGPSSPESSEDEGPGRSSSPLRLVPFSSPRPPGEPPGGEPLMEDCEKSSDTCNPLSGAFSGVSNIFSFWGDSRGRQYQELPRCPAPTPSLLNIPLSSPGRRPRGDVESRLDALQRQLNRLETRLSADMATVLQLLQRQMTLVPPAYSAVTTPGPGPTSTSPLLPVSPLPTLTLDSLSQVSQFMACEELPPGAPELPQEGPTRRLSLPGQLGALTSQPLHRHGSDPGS

O=c1oc2cc(O)ccc2c2oc3ccc(O)c(CN4CCCCC4)c3c12
IC50 [1]: > 30000 nM

O=c1oc2cc(O)ccc2c2oc3ccc(O)c(CN4CCC(F)CC4)c3c12
IC50 [2]: 1550 nM

O=c1oc2cc(O)ccc2c2oc3ccc4c(c3c12)CN(C1CCCC1)CO4
IC50 [1]: 520 nM | IC50 [2]: 1300 nM

— BindingDB's records for doi:10.1016/j.bmcl.2005.01.005 (East China Normal University, 2022)
